According to article PMC3684613 (PLoS ONE, 2013):
Like-named read-outs stand apart in the source and are kept apart here.

Key:
[1] = test system: P. falciparum 3D7; parameters: method as in ChEMBL-NTD; settings: ref ChEMBL-NTD, cited from earlier work
[2] = test system: P. falciparum 3D7; test: DAPI stain fluorescent high content imaging assay, P. falciparum 3D7 (confirmatory screen, Avery); settings: Plasmodium falciparum; for EC50: 3D7, read-out: EC50_nM; for inhibition of growth at 5 µM: 3D7, read-out: percent_inh @ 5 uM; for inhibition of growth at 2 µM: 3D7, read-out: percent_inh @ 2 uM
[3] = original screening data, source (GSK, GNF, StJude), several values separated by ';' in order of sources
[4] = values follow the order of the source (GNF; GSK; StJude)

| SMILES | EC50 [2] [nM] | inhibition of growth at 5 µM [2] [%] | EC50 [1, 4] [nM] | other results |
| --- | --- | --- | --- | --- |
| C=CCc1c(C)nc2ccccc2c1O [MMV006913] | 1290 | 85 |  | EC50 [1, 3]: 707 nM |
| Cc1ccc(-c2cc3nc4c(c(O)n3n2)CCCC4)cc1 [MMV006937] | 396 | 73 |  | EC50 ([1]; source GNF (GNF-Pf id)): 1600 nM |
| O=C(Nc1ccc(-c2nc3cc(NC(=O)c4ccc(Cl)cc4)ccc3[nH]2)cc1)c1ccc(Cl)cc1 [MMV006962] |  |  | 993 | inhibition at 1.25 µM ([2]; 3D7, read-out: % inh. At 1.25 uM): 48% |
| CCOc1ccc2nc(C)cc(Nc3ccc(N(C)C)cc3)c2c1 [MMV007020] | 4000 |  | 344 | inhibition of growth at 2 µM [2]: 94% |
| Cc1ccc2c(C)nc(Nc3nc(C)cc(-c4ccccc4)n3)nc2c1 [MMV007041] | 4000 |  | 975 | inhibition of growth at 2 µM [2]: 73% |
| CCOc1ccc(CN2CCN(CC(O)COc3ccc(OCC(O)CN4CCN(Cc5ccc(OCC)cc5)CC4)cc3)CC2)cc1 (stereo not shown) [MMV007092] | 1200 | 97 | 1370 |  |
| c1ccc(C2=Nc3ccccc3N=C(c3ccccc3)c3ccccc32)cc1 [MMV007113] | 662 | 99 | 678 |  |
| CCOC(=O)c1cnc2ccc(CC)cc2c1O [MMV007116] | 351 |  |  | EC50 ([1]; source GNF (GNF-Pf id)): 716 nM |
| OC1=C2C(=Nc3ccccc3SC2c2ccc(Br)cc2)c2ccccc21 (stereo not shown) [MMV007127] | 567 | 97 |  | EC50 ([1]; source GNF (GNF-Pf ids)): 337 nM |
| Cc1ccc(N2C3c4ccccc4N(S(=O)(=O)c4ccc(C)cc4)C2c2ccccc2N3S(=O)(=O)c2ccc(C)cc2)cc1 [MMV007160] | 24.8 | 97 |  | EC50 ([1]; source GNF (GNF-Pf id)): 720 nM |
| Cc1cc(Nc2ccc(OCc3ccccc3)cc2)nc2cc(O)ccc12 [MMV007181] | 684 | 96 | 73.6 |  |
| COc1ccc(OC)c(C2C3=C(CC(C)(C)CC3=O)N(c3ccc(Cl)c(Cl)c3)C3=C2C(=O)CC(C)(C)C3)c1 [MMV007208] | 912 | 90 |  | EC50 ([1]; source GNF (GNF-Pf ids)): 430 nM |
| Cc1cccc(N2C(=O)C3C(C2=O)C2(c4ccccc4)C(=O)C3(c3ccccc3)C(c3ccc4c(c3)OCO4)=C2c2ccc3c(c2)OCO3)c1 (stereo not shown) [MMV007228] | 304 | 94 | 1070 |  |
| COc1cc(-c2nc(-c3ccc(Sc4ccccc4)cc3)c(-c3ccccc3)[nH]2)cc(OC)c1O [MMV007273] | 350 | 97 |  | EC50 ([1]; source GNF (GNF-Pf ids)): 1280 nM |
| Cc1ccc(F)cc1NC(=O)c1cc(Cl)ccc1Nc1ccccc1 [MMV007275] | 539 | 99 |  | EC50 ([1]; source GNF (GNF-Pf ids)): 191 nM |
| CCOc1ccc(Nc2ccnc3cc(Cl)ccc23)cc1 [MMV007285] | 4000 |  | 956 | inhibition of growth at 2 µM [2]: 94% |
| Clc1ccc2c(N3CCCC3)ccnc2c1 [MMV007363] | 944 | 97 |  | EC50 [1, 3]: 283 nM |
| CCc1ccc(Nc2cc(C)nc3nc(C)nn23)cc1 [MMV007374] | 4000 |  |  | EC50 [1, 3]: 574 nM; inhibition of growth at 2 µM [2]: 81% |
| COc1ccc(-c2nc3cc(Cc4ccc5[nH]c(-c6ccc(OC)cc6)nc5c4)ccc3[nH]2)cc1 [MMV007384] | 176 | 98 |  | EC50 ([1]; source GNF (GNF-Pf id)): 234 nM |
| Cc1ccccc1OCCSc1nc2ccc(NC(=O)c3cccs3)cc2s1 [MMV007396] | 697 | 96 |  | EC50 ([1]; source GNF (GNF-Pf ids)): 497 nM |
| O=C(NCc1ccco1)C1CCN(S(=O)(=O)c2ccc(Br)cc2)CC1 [MMV007430] | 939 | 93 |  | EC50 [1, 3]: 362 nM |
| COc1cc2c3cc1Oc1c(OC)c(OC)cc4c1C(Cc1ccc(O)c(c1)Oc1ccc(cc1)CC3N(C)CC2)N(C)CC4 (stereo not shown) [MMV007474] | 1270 | 96 | 997 |  |
| COc1ccc(CCNC(=O)c2cc(S(=O)(=O)N3CC(C)CC(C)C3)ccc2Sc2ccc(F)cc2)cc1OC (stereo not shown) [MMV007557] | 632 | 97 |  | EC50 ([1]; source GNF (GNF-Pf ids)): 1050 nM |
| Cc1ccc(Cn2c(N3CCC(C(=O)NCc4cccs4)CC3)nc3ccccc32)cc1 [MMV007564] | 947 | 73 |  | EC50 ([1]; source GNF): 529 nM; EC50 ([1]; source GSK): 748 nM |
| Cc1ccc(CSCc2ccc(C(=O)NC3CC3)o2)cc1 [MMV007571] | 635 | 97 |  | EC50 ([1]; source GNF): 418 nM |
| O=C(Nc1ccc(C23CC4CC(CC(c5ccccc5)(C4)C2)C3)cc1)c1cccs1 [MMV007574] | 826 | 96 |  | EC50 ([1]; source GNF (GNF-Pf ids)): 645 nM |
| Cc1ccccc1OCCSc1nc2ccc(NC(=O)c3ccccc3)cc2s1 [MMV007577] | 1120 | 93 |  | EC50 ([1]; source GNF (GNF-Pf ids)): 9760 nM |
| COc1ccc(C(=O)C(CCC(CNC(C)(C)C)C(=O)c2ccc(OC)cc2)CNC(C)(C)C)cc1 (stereo not shown) [MMV007591] |  | 85 | 1120 |  |
| CC(=O)NCCc1nc2ccccc2n1Cc1ccc(C(C)C)cc1 [MMV007617] | 1790 | 97 |  | EC50 ([1]; source GNF): 764 nM |
